Measured values: article PMC11648230, “Structure–function analysis of tRNA t^6A-catalysis, assembly, and thermostability of Aquifex aeolicus TsaD2B2 tetramer in complex with TsaE” (The Journal of Biological Chemistry, 2024)

Biological target: T1, A. aeolicus TsaD2B2 (TsaD-TsaB) (Aquifex aeolicus, UniProt O66986)
T1 construct: recombinant from E. coli; co-expressed (pET21a-BC10_DZop), C-terminal 6His on TsaB; tetramer; Cys10 of TsaD oxidized (CSO10) in crystals; with tRNA threonylcarbamoyladenosine biosynthesis protein TsaB
T1 sequence (O66494 entry or part of it): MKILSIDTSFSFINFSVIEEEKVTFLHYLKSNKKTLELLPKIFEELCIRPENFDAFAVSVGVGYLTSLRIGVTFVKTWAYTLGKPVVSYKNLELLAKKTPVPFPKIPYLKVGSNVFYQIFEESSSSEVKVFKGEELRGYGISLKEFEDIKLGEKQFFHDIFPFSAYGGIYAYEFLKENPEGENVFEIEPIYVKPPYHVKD
T1 sequence (O66986 whole entry): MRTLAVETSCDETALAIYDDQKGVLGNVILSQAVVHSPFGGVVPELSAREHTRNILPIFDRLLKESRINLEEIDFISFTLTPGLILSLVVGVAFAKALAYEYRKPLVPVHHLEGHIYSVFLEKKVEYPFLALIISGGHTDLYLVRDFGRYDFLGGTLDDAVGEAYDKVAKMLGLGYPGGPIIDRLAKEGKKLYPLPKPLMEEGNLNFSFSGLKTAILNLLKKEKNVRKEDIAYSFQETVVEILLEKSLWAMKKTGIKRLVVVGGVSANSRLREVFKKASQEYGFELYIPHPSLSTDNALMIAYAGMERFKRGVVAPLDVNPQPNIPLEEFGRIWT
Assay: LC-MS of tRNA t6A formation
Type: biochemical
Details: isolated TC-AMP 30 uM, EDTA-dialyzed TsaD2B2 plus MgCl2, FeCl2 or ZnCl2 100 uM, 60 uM tRNA-Lys(UUU), no TsaE

**Q.** With `C[C@@H](O)[C@H](NC(=O)OP(=O)(O)OC[C@H]1O[C@@H](n2cnc3c(N)ncnc32)[C@H](O)[C@@H]1O)C(=O)O` [TC-AMP] as the compound, how does the “LC-MS of tRNA t6A formation” value read?
**A.** The value was “we only used EDTA-dialyzed TsaD2B2, HPLC-purified TC-AMP, and SEC-purified IVT tRNA^LysUUU”.
